This is an account of results in paper PMC3899232, “Peptide Binding Properties of the Three PDZ Domains of Bazooka (Drosophila Par-3)” (PLoS ONE, 2014).

“And” between values parts separate entries of the source, which are not always exact repeats. Equal values may be shown once. Ends that are not written are not given here. Peptide text beside a SMILES is read from it. * marks the point of attachment. Biotin = O=C1N[C@H]2[C@H](CS[C@H]2CCCCC(=O)*)N1

Assay [1] has as its target GST-PDZ1-3 (Baz PDZ domains in tandem) (Drosophila melanogaster, UniProt Q0KHR3). Nature of the assay: SPR binding of peptides to immobilized tandem GST-PDZ1-3 (Biacore 3000). The following applies: for KD values of GST-PDZ1-3 compared with single GST-PDZ domains (in words): SPR, HBS-EP pH 7.4, tandem versus single PDZ domain alone; for Kd: tandem GST-PDZ1-3 immobilized on CM5 at 30 µg/ml in 10 mM sodium acetate pH 5.5, HBS-EP running buffer pH 7.4. The source says:
With the binding strengths of individual PDZ domain-peptide interactions quantified, we next investigated whether the natural tandem arrangement of the PDZ domains affects their peptide binding. For these experiments, we purfied GST-PDZ1-3 and confirmed its stability by SDS-PAGE (Fig. 2B). To test the binding properties of the individual PDZ domains within the tandem, we separately probed GST-PDZ1-3 with Peptides 1, 2 and 3. […] To assess binding quantitatively, we determined the KD values of GST-PDZ1-3 binding to each peptide. […] Thus, the peptide binding pockets of each PDZ domain appear to be unaffected by tandem organization of the PDZ domains.
(§1) Binding experiments were conducted with a Biacore 3000 biosensor (GE Healthcare, USA), as described. Specifically, the GST fusion proteins of each PDZ domain alone or of the PDZ domains in tandem were immobilized on CM5 chips (GE Healthcare) at a concentration of 30 µg/ml in 10 mM sodium acetate (pH 5.5) for PDZ1, PDZ3 and PDZ1-3, and in 10 mM HEPES (pH 7.0) for PDZ2. The peptides for SPR were biotinylated but otherwise identical to those indentified by phage display (Peptide 1, Biotin-SAPGGGLRIVNGLWIF; Peptide 2, Biotin-SAPGGGDREWWV; Peptide 3, Biotin-SAPGGGRVLWFDLGIF; synthesized by Sheldon Biotechnology Centre, McGill University, Canada). All peptides were solubilized in HBS-EP running buffer (10 mM Hepes pH 7.4, 150 mM NaCl, 3 mM EDTA, 0.005% Surfactant P20) and were flowed over the immobilized proteins in this buffer. For Peptide 1 and Peptide 3, KD values were determined with a 1∶1 binding model with drifting baseline. For Peptide 2, KD values were determined with a steady state model.
For orientation: SPR reads the build-up and loss of mass on a sensor chip optically.

A further assay has as its target GST-PDZ1 (Baz PDZ1) (Drosophila melanogaster, UniProt Q0KHR3). Nature of the assay: SPR binding of peptides to immobilized GST-PDZ1 (Biacore 3000). To be noted: for Kd: GST-PDZ1 immobilized on CM5 at 30 µg/ml in 10 mM sodium acetate pH 5.5, HBS-EP running buffer pH 7.4, 1:1 binding model with drifting baseline. The procedure:
(§2) To test the binding of purified peptides to the PDZ domain GST fusion proteins, we acquired one peptide for each PDZ domain corresponding to single peptides identified by phage display (Fig. 3A). We separately immobilized PDZ domain GST fusion proteins on solid supports and analyzed peptide binding by surface plasmon resonance (SPR).
as §1

A further assay has as its target GST-PDZ2 (Baz PDZ2) (Drosophila melanogaster, UniProt Q0KHR3). Nature of the assay: SPR binding of peptides to immobilized GST-PDZ2 (Biacore 3000). To be noted: for Kd: GST-PDZ2 immobilized on CM5 at 30 µg/ml in 10 mM HEPES pH 7.0, HBS-EP running buffer pH 7.4, steady state model. The procedure: as §2, §1
For another assay, the target named is GST-PDZ3 (Baz PDZ3) (Drosophila melanogaster, UniProt Q0KHR3). Nature of the assay: SPR binding of peptides to immobilized GST-PDZ3 (Biacore 3000). To be noted: for Kd: GST-PDZ3 immobilized on CM5 at 30 µg/ml in 10 mM sodium acetate pH 5.5, HBS-EP running buffer pH 7.4, 1:1 binding model with drifting baseline. As to the method:
as §2, §1

In assay [2] the target is GST-Baz PDZ1-3 (fusion protein containing all three PDZ domains and their normal linker regions) (Drosophila). Nature of the assay: SPR; Biacore 3000; GST fusion protein immobilised on CM5 chip (30 µg/ml in 10 mM sodium acetate pH 5.5); Peptide 1 or Peptide 3 flowed in HBS-EP (10 mM Hepes pH 7.4, 150 mM NaCl, 3 mM EDTA, 0.005% Surfactant P20); 1:1 binding model with drifting baseline.

For assay [3], the target named is GST-PDZ3 (GST fusion protein of Baz PDZ3) (Drosophila). Described as above.
The target in assay [4] is GST-PDZ1 (GST fusion protein of Baz PDZ1) (Drosophila). Described as above.
Assay [5] has as its target GST-Baz PDZ1-3 (fusion protein containing all three PDZ domains and their normal linker regions) (Drosophila). Nature of the assay: SPR; Biacore 3000; GST fusion protein immobilised on CM5 chip (30 µg/ml; PDZ2 in 10 mM HEPES pH 7.0, PDZ1-3 in 10 mM sodium acetate pH 5.5); Peptide 2 flowed in HBS-EP (10 mM Hepes pH 7.4, 150 mM NaCl, 3 mM EDTA, 0.005% Surfactant P20); steady state model.

Assay [6] has as its target GST-PDZ2 (GST fusion protein of Baz PDZ2) (Drosophila). Described as above.
The mark [7] stands for this setting: replicate 1 (separately purified proteins, separately prepared peptides), Peptides 1 and 3: 1:1 binding model with drifting baseline.
Where [8] appears, read: replicate 2 (separately purified proteins, separately prepared peptides), Peptides 1 and 3: 1:1 binding model with drifting baseline.
Where [9] appears, read: replicate 1 (separately purified proteins, separately prepared peptides).
[10] abbreviates: replicate 2 (separately purified proteins, separately prepared peptides).

GST-PDZ2 (Baz PDZ2), sequence (Q0KHR3 1-1520): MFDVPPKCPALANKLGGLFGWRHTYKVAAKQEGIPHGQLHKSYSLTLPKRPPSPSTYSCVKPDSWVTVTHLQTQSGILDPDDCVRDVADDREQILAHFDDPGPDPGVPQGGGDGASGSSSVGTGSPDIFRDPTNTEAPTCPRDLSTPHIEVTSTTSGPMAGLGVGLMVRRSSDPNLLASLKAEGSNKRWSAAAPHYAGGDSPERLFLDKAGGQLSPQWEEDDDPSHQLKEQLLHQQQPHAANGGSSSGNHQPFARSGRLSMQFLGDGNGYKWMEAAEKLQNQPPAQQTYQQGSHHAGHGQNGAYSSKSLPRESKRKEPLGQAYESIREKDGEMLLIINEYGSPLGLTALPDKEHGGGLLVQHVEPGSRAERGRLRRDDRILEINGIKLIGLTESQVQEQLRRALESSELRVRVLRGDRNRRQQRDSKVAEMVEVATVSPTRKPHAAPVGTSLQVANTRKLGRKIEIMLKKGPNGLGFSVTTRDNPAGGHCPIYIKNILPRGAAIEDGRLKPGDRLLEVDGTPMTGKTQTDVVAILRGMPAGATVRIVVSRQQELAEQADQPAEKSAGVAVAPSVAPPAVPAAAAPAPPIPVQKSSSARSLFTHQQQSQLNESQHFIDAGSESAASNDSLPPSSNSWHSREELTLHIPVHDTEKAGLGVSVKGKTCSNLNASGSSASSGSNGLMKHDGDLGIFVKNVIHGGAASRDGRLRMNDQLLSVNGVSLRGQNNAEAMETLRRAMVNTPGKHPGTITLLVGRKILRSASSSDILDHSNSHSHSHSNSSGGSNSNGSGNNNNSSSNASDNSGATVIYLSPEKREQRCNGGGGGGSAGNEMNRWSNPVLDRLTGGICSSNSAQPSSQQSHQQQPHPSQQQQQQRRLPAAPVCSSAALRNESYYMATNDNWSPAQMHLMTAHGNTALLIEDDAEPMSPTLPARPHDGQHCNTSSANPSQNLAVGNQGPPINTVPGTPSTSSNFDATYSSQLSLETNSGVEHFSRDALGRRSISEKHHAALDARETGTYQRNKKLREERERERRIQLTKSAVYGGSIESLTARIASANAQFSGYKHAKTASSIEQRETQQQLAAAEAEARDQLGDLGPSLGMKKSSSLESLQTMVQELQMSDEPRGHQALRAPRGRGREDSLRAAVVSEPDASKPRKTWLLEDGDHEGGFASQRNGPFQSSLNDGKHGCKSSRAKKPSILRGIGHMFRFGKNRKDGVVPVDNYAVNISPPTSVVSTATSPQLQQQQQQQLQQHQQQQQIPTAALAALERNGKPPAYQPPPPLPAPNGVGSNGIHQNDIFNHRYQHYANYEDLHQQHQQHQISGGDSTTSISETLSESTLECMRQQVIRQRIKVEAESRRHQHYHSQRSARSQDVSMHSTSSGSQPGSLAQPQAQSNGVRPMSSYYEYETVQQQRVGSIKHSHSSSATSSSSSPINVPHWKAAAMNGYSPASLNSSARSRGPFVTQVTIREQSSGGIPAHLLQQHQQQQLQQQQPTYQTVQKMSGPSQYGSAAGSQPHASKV
GST-PDZ1-3 (Baz PDZ domains in tandem), sequence (Q0KHR3 1-1520): as above
GST-PDZ1 (Baz PDZ1), sequence (Q0KHR3 1-1520): as above
GST-PDZ3 (Baz PDZ3), sequence (Q0KHR3 1-1520): as above

A word on the Kd: it is the constant that tells how readily two partners part at equilibrium. Low readings indicate higher affinity, high ones lower affinity. As for `CC[C@H](C)[C@H](NC(=O)[C@H](Cc1c[nH]c2ccccc12)NC(=O)[C@H](CC(C)C)NC(=O)CNC(=O)[C@H](CC(N)=O)NC(=O)[C@@H](NC(=O)[C@@H](NC(=O)[C@H](CCCNC(=N)N)NC(=O)[C@H](CC(C)C)NC(=O)CNC(=O)CNC(=O)CNC(=O)[C@@H]1CCCN1C(=O)[C@H](C)NC(=O)[C@H](CO)NC(=O)CCCC[C@@H]1SC[C@@H]2NC(=O)N[C@@H]21)[C@@H](C)CC)C(C)C)C(=O)N[C@@H](Cc1ccccc1)C(=O)O` [Peptide 1, Biotin-SAPGGGLRIVNGLWIF] (Biotin-SAPGGGLRIVNGLWIF-OH), in assay [1], the “KD values of GST-PDZ1-3 compared with single GST-PDZ domains (in words)” value is “very close to those of each GST-PDZ domain alone”. Also, the Kd in [1] (setting [7]) is 263 nM; in assay [1] (setting [8]), 245 nM; at GST-PDZ1 (Baz PDZ1) (setting [9]), 164 nM; at GST-PDZ1 (Baz PDZ1) (setting [10]) it was 186 nM. Moreover, at GST-PDZ1 (Baz PDZ1) (SPR, HBS-EP pH 7.4, GST-PDZ1, summary of Table 1), the “KD values (in words)” value is recorded as “in the nM range”.

Turning to `CC(C)[C@H](NC(=O)[C@H](Cc1c[nH]c2ccccc12)NC(=O)[C@H](Cc1c[nH]c2ccccc12)NC(=O)[C@H](CCC(=O)O)NC(=O)[C@H](CCCNC(=N)N)NC(=O)[C@H](CC(=O)O)NC(=O)CNC(=O)CNC(=O)CNC(=O)[C@@H]1CCCN1C(=O)[C@H](C)NC(=O)[C@H](CO)NC(=O)CCCC[C@@H]1SC[C@@H]2NC(=O)N[C@@H]21)C(=O)O` [Peptide 2, Biotin-SAPGGGDREWWV] (Biotin-SAPGGGDREWWV-OH), in assay [1], the “KD values of GST-PDZ1-3 compared with single GST-PDZ domains (in words)” value is recorded as “very close to those of each GST-PDZ domain alone”. Also, the Kd in assay [1] (replicate 1 (separately purified proteins, separately prepared peptides), Peptide 2: steady state model) stood at 9130 nM; in assay [1] (replicate 2 (separately purified proteins, separately prepared peptides), Peptide 2: steady state model), 9980 nM; at GST-PDZ2 (Baz PDZ2) (setting [9]), 17.7 µM; on GST-PDZ2 (Baz PDZ2) (setting [10]), 13 µM. For the same molecule, the “KD values (in words)” value on GST-PDZ2 (Baz PDZ2) (SPR, HBS-EP pH 7.4, GST-PDZ2, summary of Table 1) is reported as “in the µM range”.

For the molecule `CC[C@H](C)[C@H](NC(=O)CNC(=O)[C@H](CC(C)C)NC(=O)[C@H](CC(=O)O)NC(=O)[C@H](Cc1ccccc1)NC(=O)[C@H](Cc1c[nH]c2ccccc12)NC(=O)[C@H](CC(C)C)NC(=O)[C@@H](NC(=O)[C@H](CCCNC(=N)N)NC(=O)CNC(=O)CNC(=O)CNC(=O)[C@@H]1CCCN1C(=O)[C@H](C)NC(=O)[C@H](CO)NC(=O)CCCC[C@@H]1SC[C@@H]2NC(=O)N[C@@H]21)C(C)C)C(=O)N[C@@H](Cc1ccccc1)C(=O)O` [Peptide 3, Biotin-SAPGGGRVLWFDLGIF] (Biotin-SAPGGGRVLWFDLGIF-OH), the “KD values of GST-PDZ1-3 compared with single GST-PDZ domains (in words)” value in [1] is on record as “very close to those of each GST-PDZ domain alone”. For the same molecule, the Kd in assay [1] (setting [7]) was determined as 49.4 nM; in [1] (setting [8]) it was 32.6 nM; on GST-PDZ3 (Baz PDZ3) (setting [9]), 45.9 nM; at GST-PDZ3 (Baz PDZ3) (setting [10]), 25.2 nM. In addition, the “KD values (in words)” value on GST-PDZ3 (Baz PDZ3) (SPR, HBS-EP pH 7.4, GST-PDZ3, summary of Table 1) is reported as “in the nM range”.

As to Biotin-SAPGGGRVLWFDLGIF [Peptide 3 (Biotin-…)], the Kd is 49.4 nM and 32.6 nM in [2]; 25.2 nM and 45.9 nM in assay [3].

As to Biotin-SAPGGGLRIVNGLWIF [Peptide 1 (Biotin-…)], the Kd in assay [2] is 263 nM and 245 nM; in [4], 164 nM and 186 nM.

Regarding Biotin-SAPGGGDREWWV [Peptide 2 (Biotin-…)], the Kd in [5] is 9.13 µM and 9.98 µM; in assay [6], 17.7 µM and 13 µM.
